In patent US20250186391A1, “ORAL COMPLEMENT FACTOR D INHIBITORS” (BioCryst Pharmaceuticals, Inc., priority 2019, published 2025) one finds IC50 data, which are given here for 34 compounds.

Sequence of Factor D (P00746 26-253): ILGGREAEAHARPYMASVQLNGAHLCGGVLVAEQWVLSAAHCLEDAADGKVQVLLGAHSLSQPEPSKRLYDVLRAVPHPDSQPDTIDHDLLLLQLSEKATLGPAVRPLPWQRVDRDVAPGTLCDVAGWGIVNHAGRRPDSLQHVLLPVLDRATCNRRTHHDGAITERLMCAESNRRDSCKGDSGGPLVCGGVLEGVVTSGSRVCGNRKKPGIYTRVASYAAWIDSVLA

For the assay, the target named is Factor D (Homo sapiens (Human), UniProt P00746). Put plainly: Factor D esterolytic assay. To be noted: Z-Lys-SBzl substrate, 100 mM HEPES, 500 mM NaCl, pH 7.5, 10% DMSO; tested a minimum of three times; read-out: Measured Ki (IC50) Value for Compounds: IC50. The assay is classed as biochemical. In short, it runs like this:
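Buffer was 100 mM HEPES, 500 mM NaCl, pH 7.5 with 10% DMSO. Compound and Factor D were combined, then Z-Lys-SBzl (1.29 mM) was added either at once or following room-temperature incubation. Rates came from DTNB colour at 405 nm minus 690 nm over 600 s, with percent inhibition giving IC50 over at least three tests.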
Take `CCc1oc2ccc(-c3cccc(CN)c3)cc2c1COc1cc(OC)ccc1CC(=O)O` [Compound 225e, 2-(2-((5-(3-(aminomethyl)phenyl)-2-ethylbenzofuran-3-yl)methoxy)-4-methoxyphenyl)acetic acid]: the IC50 is under 1000 nM. As to `NCc1nccc(-c2cc(COc3ccccc3CC(=O)O)cc3cc(COc4ccccc4CC(=O)O)oc23)c1F` [Compound 28d, 2,2′-((((7-(2-(aminomethyl)-3-fluoropyridin-4-yl)benzofuran-2,5-diyl)bis(methylene))bis(oxy))bis(2,1-phenylene))diacetic acid], the IC50 is under 1000 nM.

Regarding `NCc1cccc(-c2cc(N)c3oc(COc4ccccc4CC(=O)O)cc3c2)c1` [Compound 235g, 2-(2-((7-amino-5-(3-(aminomethyl)phenyl)benzofuran-2-yl)methoxy)phenyl)acetic acid], the IC50 is over 10000 nM.

On to `NCc1cccc(-c2cc(NC[C@@H]3CCCO3)c3occ(COc4ccccc4CC(=O)O)c3c2)c1` [Compound 275d, (S)-2-(2-((5-(3-(aminomethyl)phenyl)-7-(((tetrahydrofuran-2-yl)methyl)amino)benzofuran-3-yl)methoxy)phenyl)acetic acid], for which the IC50 was under 1000 nM. For `NCc1cccc(-c2ccc3occ(COc4cc(F)ccc4CC(=O)O)c3c2)c1` [Compound 39f, 2-(2-((5-(3-(aminomethyl)phenyl)benzofuran-3-yl)methoxy)-4-fluorophenyl)acetic acid], the IC50 was under 1000 nM. In the case of `NCc1cccc(-c2ccc3c(COc4ccccc4CC(=O)O)coc3c2)c1` [Compound 94d, 2-(2-((6-(3-(aminomethyl)phenyl)benzofuran-3-yl)methoxy)phenyl)acetic acid], the IC50 was over 10000 nM. As for `NCc1cccc(-c2cccc3cc(COc4ccccc4CC(=O)O)ccc23)c1` [Compound 41d, 2-(2-((5-(3-(aminomethyl)phenyl)naphthalen-2-yl)methoxy)phenyl)acetic acid], the figure is over 10000 nM; as for `NCc1cccc(-c2cc3c(COc4ccccc4CC(=O)O)coc3c3occc23)c1` [Compound 229g, 2-(2-((5-(3-(aminomethyl)phenyl)benzo[1,2-b:6,5-b′]difuran-3-yl)methoxy)phenyl)acetic acid], under 1000 nM.

As to `CCOC(=O)Cc1ccc(OC)cc1OCc1nn(C)c2ccc(-c3ccnc(CN)c3)cc12` [Compound 315b, ethyl 2-(2-((5-(2-(aminomethyl)pyridin-4-yl)-1-methyl-1H-indazol-3-yl)methoxy)-4-methoxyphenyl)acetate], the IC50 was under 1000 nM. As for `NCc1cccc(-c2cc(-c3cccc(CN)c3)c3oc(C(=O)O)c(COc4ccccc4CC(=O)O)c3c2)c1` [Compound 58f, 5,7-bis(3-(aminomethyl)phenyl)-3-((2-(carboxymethyl)phenoxy)methyl)benzofuran-2-carboxylic acid], the figure is under 1000 nM. In the case of `NCc1cccc(-c2cc(OCCC3CCOCC3)c3occ(COc4ccccc4CC(=O)O)c3c2)c1` [Compound 249f, 2-(2-((5-(3-(aminomethyl)phenyl)-7-(2-(tetrahydro-2H-pyran-4-yl)ethoxy)benzofuran-3-yl)methoxy)phenyl)acetic acid], the IC50 is under 1000 nM. Consider `NCc1cccc(-c2ccc3oc(C(O)C(F)(F)F)c(COc4ccccc4CC(=O)O)c3c2)c1` (stereo not shown) [Compound 140c, 2-(2-((5-(3-(aminomethyl)phenyl)-2-(2,2,2-trifluoro-1-hydroxyethyl)benzofuran-3-yl)methoxy)phenyl)acetic acid], for which the IC50 was under 1000 nM. In the case of `COc1ccc(CC(=O)O)c(OCc2c(C)oc3ccc(-c4cccc([C@H](C)N)c4)cc23)c1` [Compound 240b, (S)-2-(2-((5-(3-(1-aminoethyl)phenyl)-2-methylbenzofuran-3-yl)methoxy)-4-methoxyphenyl)acetic acid], the IC50 was under 1000 nM. Turning to `NCc1cccc(-c2cc(CN3CCOCC3)c3occ(COc4ccccc4CC(=O)O)c3c2)c1` [Compound 79h, 2-(2-((5-(3-(aminomethyl)phenyl)-7-(morpholinomethyl)benzofuran-3-yl)methoxy)phenyl)acetic acid], the IC50 was under 1000 nM. For `NCc1cccc(-c2ccc3c(COc4ccccc4CC(=O)O)coc3c2)c1F` [Compound 95b, 2-(2-((6-(3-(aminomethyl)-2-fluorophenyl)benzofuran-3-yl)methoxy)phenyl)acetic acid], the IC50 is over 10000 nM. The figure for `NCc1cccc(-c2ccc3occ(COc4cccc(F)c4CC(=O)O)c3c2)c1` [Compound 126f, 2-(2-((5-(3-(aminomethyl)phenyl)benzofuran-3-yl)methoxy)-6-fluorophenyl)acetic acid] is under 1000 nM; for `CN(Cc1cc(-c2cccc(CN)c2)cc2c(COc3ccccc3CC(=O)O)coc12)CC1CC1` [Compound 263e, 2-(2-((5-(3-(aminomethyl)phenyl)-7-(((cyclopropylmethyl)(methyl)amino)methyl)benzofuran-3-yl)methoxy)phenyl)acetic acid] it is under 1000 nM; for `NCc1cccc(-c2cc(NC3CCCC3)c3occ(COc4ccccc4CC(=O)O)c3c2)c1` [Compound 188d, 2-(2-((5-(3-(aminomethyl)phenyl)-7-(cyclopentylamino)benzofuran-3-yl)methoxy)phenyl)acetic acid] it is under 1000 nM. As to `CC(C)n1nc(COc2ccccc2CC(=O)O)c2cc(-c3cc(O)cc(CN)c3)ccc21` [Compound 243g, 2-(2-((5-(3-(aminomethyl)-5-hydroxyphenyl)-1-isopropyl-1H-indazol-3-yl)methoxy)phenyl)acetic acid], the IC50 is under 1000 nM. As for `NCc1cc(-c2cc(COc3ccccc3CC(=O)O)cc3cc(COc4ccccc4CC(=O)O)oc23)ccn1` [Compound 27e, 2,2′-((((7-(2-(aminomethyl)pyridin-4-yl)benzofuran-2,5-diyl)bis(methylene))bis(oxy))bis(2,1-phenylene))diacetic acid], the figure is under 1000 nM. As for `NCc1cccc(-c2ccc3occ(COc4cc(N)ccc4CC(=O)O)c3c2)c1` [Compound 84b, 2-(4-amino-2-((5-(3-(aminomethyl)phenyl)benzofuran-3-yl)methoxy)phenyl)acetic acid], the IC50 is under 1000 nM. The figure for `CC(C)n1nc(COc2cccc(C(=O)O)c2)c2cc(-c3cccc(CN)c3)ccc21` [Compound 303d, 3-((5-(3-(aminomethyl)phenyl)-1-isopropyl-1H-indazol-3-yl)methoxy)benzoic acid] is over 10000 nM; for `CCn1cc(-c2cc(-c3cccc(CN)c3)cc3c(COc4ccccc4CC(=O)O)coc23)cn1` [Compound 128c, 2-(2-((5-(3-(aminomethyl)phenyl)-7-(1-ethyl-1H-pyrazol-4-yl)benzofuran-3-yl)methoxy)phenyl)acetic acid] it is under 1000 nM. The figure for `COc1cccc(OCc2coc3ccc(-c4cccc(CN)c4)cc23)c1CC(=O)O` [Compound 109d, 2-(2-((5-(3-(aminomethyl)phenyl)benzofuran-3-yl)methoxy)-6-methoxyphenyl)acetic acid] is 1000 to 10000 nM; for `Cc1cccc(-c2cc(-c3cccc(CN)c3)cc3c(COc4ccccc4CC(=O)O)coc23)c1` [Compound 197c, 2-(2-((5-(3-(aminomethyl)phenyl)-7-(m-tolyl)benzofuran-3-yl)methoxy)phenyl)acetic acid] it is under 1000 nM.

As for `COc1ccc(CC(=O)O)c(OCc2c(F)oc3ccc(-c4cccc(CN)c4)cc23)c1` [Compound 172f, 2-(2-((5-(3-(aminomethyl)phenyl)-2-fluorobenzofuran-3-yl)methoxy)-4-methoxyphenyl)acetic acid], the IC50 was under 1000 nM. Regarding `NCc1cccc(-c2coc3c(COc4ccccc4CC(=O)O)cccc23)c1` [Compound 96e, 2-(2-((3-(3-(aminomethyl)phenyl)benzofuran-7-yl)methoxy)phenyl)acetic acid], the IC50 is over 10000 nM. Consider `NCc1cccc(-c2ccc3occ(Cc4cccc(CC(=O)O)c4O)c3c2)c1F` [Compound 42c, 2-(3-((5-(3-(aminomethyl)-2-fluorophenyl)benzofuran-3-yl)methyl)-2-hydroxyphenyl)acetic acid], for which the half-inhibitory concentration (IC50) was under 1000 nM. The figure for `CN1CCN(Cc2cc(-c3cccc(CN)c3)cc3c(COc4ccccc4CC(=O)O)coc23)CC1` [Compound 157e, 2-(2-((5-(3-(aminomethyl)phenyl)-7-((4-methylpiperazin-1-yl)methyl)benzofuran-3-yl)methoxy)phenyl)acetic acid] is under 1000 nM; for `NCc1cccc(-c2ccc3c(c2)c(COc2ccccc2CC(=O)O)nn3C2CCC2)c1` [Compound 298d, 2-(2-((5-(3-(aminomethyl)phenyl)-1-cyclobutyl-1H-indazol-3-yl)methoxy)phenyl)acetic acid] it is under 1000 nM; for `CCCC(C(=O)O)c1ccccc1OCc1nn(C(C)C)c2ccc(-c3cccc(CN)c3)cc12` (stereo not shown) [Compound 246f, 2-(2-((5-(3-(aminomethyl)phenyl)-1-isopropyl-1H-indazol-3-yl)methoxy)phenyl)pentanoic acid] it is 1000 to 10000 nM. As for `COc1ccc(CC(=O)O)c(OCc2c(C(=O)O)sc3ccc(-c4cccc(CN)c4)cc23)c1` [Compound 62c, 5-(3-(aminomethyl)phenyl)-3-((2-(carboxymethyl)-5-methoxyphenoxy)methyl)benzo[b]thiophene-2-carboxylic acid], the figure is under 1000 nM. As for `CC(C)n1nc(COc2ccccc2CC(=O)O)c2cc(-c3cc(CN)cc(C4CC4)c3)ccc21` [Compound 331e, 2-(2-((5-(3-(aminomethyl)-5-cyclopropylphenyl)-1-isopropyl-1H-indazol-3-yl)methoxy)phenyl)acetic acid], the figure is 1000 to 10000 nM. In the case of `COc1ccc(CC(=O)O)c(OCc2coc3ccc(-c4cccc(CN)c4)cc23)c1` [Compound 48b, 2-(2-((5-(3-(aminomethyl)phenyl)benzofuran-3-yl)methoxy)-4-methoxyphenyl)acetic acid], the IC50 was under 1000 nM.

As a reminder, the IC50 is the concentration needed to halve the response being measured.
